# Assay results published in patent publication US10793601B2, “Therapeutic spalt-like transcription factor 4 (SALL4) peptide” (National University of Singapore, priority 2016, dated 2020).
# Several values for one entry are separate records, joined by “and”; a condition that tells them apart may be missing. Equal values may be shown once. Ends that are not written are not given here.
# Legend:
# SNU398 tumor xenografts = assay: SNU398 xenograft in NSG mice; format: in vivo, NOD/SCID/gamma mice
# Protocol: FIGS. 7A-7E. […] FIG. 7A: 7.2×10^5 SNU398 cells were inoculated subcutaneously into the right flank of NOD/SCID/gamma mice (NSG mice). Tumors were allowed to grow for one week before peptide treatments were administered every alternate day for a total of five injections. FIG. 7B: Tumor growth was documented by plotting tumor volume against time. […] FIG. 7C: Relative size of tumors resected on day 20. FIG. 7D: tumor weight was determined (n=5). […] FIG. 7E: Total RNA was isolated from the resected tumors and expression of PTEN was measured using real-time PCR.
# FIGS. 9A-9E. […] FIG. 9A: PEN-FFW treated SNU398 tumor xenografts were compared to that of Sorafenib treated xenografts. FIG. 9B: PEN-FFW treated PLC8024 tumor xenografts were compared to that of Sorafenib treated xenografts. Mice body weight was measured to access toxicity of various peptides. FIG. 9C: Body weight of mice at day 17. FIG. 9D: Differences of body weight compared to day 0 (As indicated by the arrow in far left of FIG. 7A). FIG. 9E: Body weight of mice at day 19th in the experiment shown in FIG. 9A comparing effect of Sorafenib and PEN-FFW. Data represent mean±s.d. (n=5).
# All mice were treated in accordance with Responsible Care and Use of Laboratory animals. In the SNU398 in vivo studies, 6-8-week-old female C.B-17 severe combined immunodeficient (SCID) mice (NSG) were inoculated s.c. into the flank with 7.2×10^5 cells in 2:1 PBS/Matrigel (BD Biosciences). The tumours were then allowed to develop to the size of 50-70 mm3 before intraperitoneal injections of the different peptides were given at two to three-day intervals for a total of 5 injections. Mice were randomly grouped in sets of six and treated with PEN (penetratin control), PEN-MUT (mutant control), PEN-WT (wild type control) and PEN-FFW (peptide 47). Tumor volumes were measured every 5 days and tumor weight were measured at the end point. For PEN control, 22.5 mg/kg were given; for PEN-MUT, PEN-WT and PEN-FFW, 35.6 mg/kg, 37 mg/kg and 36 mg/kg were given respectively to the mice according to their body weight Tumor measurements were taken twice weekly using Vernier calipers. Tumor volume was estimated using the following formula: V=0.5×width×width×length. When tumors approached ˜50 mm3, mice were randomized into groups of 5 animals each and received peptides treatment three times weekly by i.p. injection. All statistical analysis was done using a one-way ANOVA and Student's T-test.
# [1] = Toxicity study, repeated IP administration; settings: 30 mg/kg IP every alternate day, 17 days, cumulative 270 mg/kg
# Protocol: (§1) Mice were exposed to intraperitoneal (IP) administration of PEN-FFW (30 mg/kg) or vehicle (10% DMSO) every alternate day over the course of 17 days to a cumulative dose of 270 mg/kg.
# (§2) Toxicity of PEN-FFW was studied in vivo in C57BL/6 mice (n=4). Theses mice were exposed to intraperitoneal (IP) administration of PEN-FFW (30 mg/kg) or vehicle (10% DMSO) every alternate day over the course of 17 days to a cumulative dose of 270 mg/kg. […] After a 7-day washout period, complete blood counts and liver function assay tests were performed, and organs were harvested for histology. Potential liver injury caused by the peptide treatment was studied by testing serum AST (Aspartate Aminotransferase) and ALT (Alanine Aminotransferase) levels.
# (§3) 6-8-week old female C57BL mice were given PEN-FFW (30 mg/kg) (n=3) or DMSO control (n=2) every alternate day, for a total of 17 day, to a cumulative dose of 270 mg/kg. The mice were observed and weighted throughout the period. A 7 days wash out period were given before the mice were sacrificed with their blood and organs collected. Blood count were perform immediately with Celltact MEK6450 (Nihon Kohden, Japan), and serum were subjected for ALT and AST assay on the same day. ALT and AST were performed according to the manufacturer's protocol (Sigma-Aldrich, Merck, Germany). The organs were fixed with neutral buffered Formalin and embedded in paraffin. […]
# PLC8024 tumor xenografts = assay: PLC8024 xenograft (Sorafenib-resistant HCC); format: in vivo, mice
# Protocol: FIGS. 9A-9E. Clinical significance of PEN-FFW compared to Sorafenib. FIG. 9A: PEN-FFW treated SNU398 tumor xenografts were compared to that of Sorafenib treated xenografts. FIG. 9B: PEN-FFW treated PLC8024 tumor xenografts were compared to that of Sorafenib treated xenografts. Mice body weight was measured to access toxicity of various peptides. FIG. 9C: Body weight of mice at day 17. FIG. 9D: Differences of body weight compared to day 0 (As indicated by the arrow in far left of FIG. 7A). FIG. 9E: Body weight of mice at day 19th in the experiment shown in FIG. 9A comparing effect of Sorafenib and PEN-FFW. Data represent mean±s.d. (n=5).
# Clinical significance of PEN-FFW was studied in vivo by benchmarking against current therapy using Sorafenib. PEN-FFW treated SNU398 tumor xenografts were compared to that of Sorafenib treated xenografts (FIG. 9A). […] Potential therapeutic effect of PEN-FFW in HCC patients that are refractory to Sorafenib treatment was studied also studied in vivo. using a HCC cell line, PLC8024 which is SALL4 positive, CD133+ and is both chemo- and radio-resistant (Li et al., BMC Cancer 2016, 16, 15; Ma et al., Oncogene 2008, 27: 1749-1758), for the xenograft study.
# [2] = mouse, in vivo
# Protocol: as §1, §2, §3
# SNU398 cells = assay: Cell viability assay in SNU398 cells; format: cell-based; settings: ratio of EC50, SNU398
# Protocol: FIGS. 3A-3E. Key residues involved in SALL4 (1-12)-RBBp4 binding. […] The difference in the binding free energy (ΔΔGbind) of the alanine mutants (ΔGmutant, Ala7 was mutated to glycine) and wild type (ΔGwild type) was calculated (ΔΔGbind=ΔGmutant−ΔGwild type). ΔΔGbind was tabulated (left) and plotted in a bar chart (right). […] Mutated residues are highlighted in red. The IC50 of each peptide, including WT, was determined by Fluorescence Polarization (FP). Different concentrations of each peptide were titrated into a mixture of 0.04 μM RBBp4 and 0.01 μM of C-labelled FITC-SALL4 WT peptide. Polarization was measured in mP. […] Pep-1 carrier was added to the peptide to facilitate cellular penetration of the peptides.
# FIGS. 5A-5B. Development of a potent therapeutic peptide FFW.
# SNU398 was grown in RPMI supplemented with 10% fetal bovine serum (FBS) at 37° C. in a humidified atmosphere of 5% CO2. 3000 cells were seeded in each well of a 96 well plate with 100 μL of medium. Before peptide treatment, cells were washed twice with PBS and treated with different concentrations of peptide in OPTIMEM (LifeTech). Media was added after 4 hrs of incubation at 37° C., and cells incubated for another 68 hrs. Tetrazolium (CellTiter96 AQueous One Solution Cell Proliferation Assay, Promega) was added after 72 hrs incubation with the peptides, and the plate was read at a plate reader at 490 nm after 1 hr of incubation in the dark at 37° C.
sequence,measurement,setting,value
RQIKIWFQNRRMKWKKRRKFAKFQWI [PEN-FFW],anti-tumor activity benchmarked against Sorafenib,"SNU398 tumor xenografts; SNU398 xenograft, compared to vehicle treated groups",stronger anti-tumor activity than Sorafenib
same,effect on tumor growth,"SNU398 tumor xenografts; SNU398 xenograft, tumor volume against time",significant reduced growth rate
same,tumor weight,"SNU398 tumor xenografts; mean, tumors resected on day 20, five i.p. injections",88.34 mg and 88 mg
same,"signs of toxicity (weight loss, lethargy, loss of mobility)",[1],did not exhibit notable signs of toxicity
same,tumor inhibitory effect,PLC8024 tumor xenografts,minimal tumor inhibitory effect
same,tissue damage by microscopic examination of major organs,[2],No tissue damage was observed
same,improvement as compared with PEN-WT,SNU398 cells,4 fold
